The record followed here is US12152038B2, “Vasopressin receptor antagonists and products and methods related thereto” (Neumora Therapeutics, Inc., priority 2017, dated 2024).

Counter-ions that a name gives are not always drawn.

T1 sequence (P37288 whole entry): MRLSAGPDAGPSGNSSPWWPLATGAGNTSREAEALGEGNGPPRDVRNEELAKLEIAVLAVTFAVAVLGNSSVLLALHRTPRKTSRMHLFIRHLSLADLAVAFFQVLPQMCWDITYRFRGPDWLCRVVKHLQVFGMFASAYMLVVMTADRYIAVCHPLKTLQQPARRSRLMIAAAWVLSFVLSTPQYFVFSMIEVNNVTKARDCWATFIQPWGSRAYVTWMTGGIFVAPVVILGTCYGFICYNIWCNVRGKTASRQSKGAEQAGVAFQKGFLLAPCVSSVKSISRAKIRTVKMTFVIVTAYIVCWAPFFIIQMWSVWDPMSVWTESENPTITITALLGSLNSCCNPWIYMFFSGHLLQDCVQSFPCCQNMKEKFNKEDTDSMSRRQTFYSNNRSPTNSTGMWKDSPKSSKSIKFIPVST

The experiment has as its target T1, human Arginine Vasopressin Receptor 1a (AVPR1a) (Homo sapiens, UniProt P37288).
T1 construct: expressed in transfected cells; host or cells: CHO (CHO-AVPR1a, kept under G418 selection)
Put plainly: Vasopressin V1a receptor antagonist assay (FLIPR calcium, CHO-AVPR1a cells). Type of experiment: cell-based. On the procedure: The purpose of this assay was to determine the inhibitory effect of synthesized compounds on the Vasopressin V1a receptor. The assay was performed in Chinese Hamster Ovary (CHO) cells expressing the human Arginine Vasopressin Receptor 1a (AVPR1a). Arginine Vasopressin (AVP) evokes an increase in intracellular calcium in CHO-AVPR1a cells which is measured in a fluorescence assay on the FLIPR^TETRA using calcium sensitive dyes. Test compounds were assessed for their ability to affect the magnitude of the response to AVP, with antagonists showing a concentration-dependent reduction in the AVP-mediated fluorescence. Compounds were tested in duplicate in a 10-point, 1:3 dilution series starting at a nominal concentration of 3 μM in the assay.
CHO-AVPR1a cells were maintained in routine culture in T175 Flasks at 37° C., 5% CO2. The growth medium consists of Ham's F12 media supplemented with 10% v/v fetal bovine serum, 1× non-essential amino acids, and 0.4 mg/ml Geneticin G418.
On day one, cells were harvested from T175 flasks when they are 80-90% confluent by first washing the cell monolayer with PBS and then dissociated using trypsin 0.05%/EDTA (3 mL for a T175 Flask). The flasks were incubated at room temperature until the cells detached. To the cell suspension, 10 ml of growth media was added and the cell density determined using the Vi-Cell automated cell counter. The cells were spun at 1000 rpm for 3 minutes, then the supernatant was carefully removed and discarded. The cell pellet was re-suspended at 6.0e^5 cells/ml in growth media. 25 μL of cells in growth media was dispensed into each well (15,000 cells per well) of a poly-D-lysine coated black, clear bottomed, 384-well plate. The plates were incubated at 37° C., 5% CO2 overnight.
At the start of each assay day, the potency of AVP was assessed and an EC80 concentration determined for subsequent compound profiling. Assays were performed using a two-step addition protocol on the FLIPR^TETRA; first addition of 5 μl of control or test compound at 10× final in assay buffer with 15 min incubation at 37° C., 5% CO2 followed by 10 μl of AVP at 6× final concentration in assay buffer. Changes in fluorescence were monitored for 3 min after both additions on the FLIPR^TETRA using 470-495 nm excitation and 515-575 nm emission wavelengths. The assay buffer consisted of HBSS (+Ca/+Mg) supplemented with 20 mM HEPES, and for the preparation of the AVP agonist only, 0.1% w/v bovine serum albumin. The assay was initiated by the removal of growth media from the cells and replacement with 45 μl of Calcium-6 dye (Molecular Devices) prepared at 1× in assay buffer. Cells were loaded with dye for 60-90 min at 37° C., 5% CO2 before initiation of the FLIPR^TETRA protocol. […] For compound profiling, test compounds were first serially diluted in DMSO (10-point curve, 1:3 dilutions) then diluted 33.3-fold in assay buffer prior to addition to the dye loaded cells on the FLIPR^TETRA. At the end of the incubation period, 10 μl of AVP in assay buffer containing 0.1% BSA was added at the previously determined EC80 concentration.
In-plate controls for the assay included balovaptan and PF-184563 concentration-response curves as reference V1a antagonists, and an AVP concentration-response curve to confirm the reproducibility of the EC80 used for the compound challenge.
Take `COc1cnc(N2CC3(CN(C(=O)N4CCOc5cc(Cl)ccc54)C3)C2)cn1` [1-23]: the IC50 was below 100 nM. Next, `N#Cc1cnc(N2CC3(CN(C(=O)N4CCOc5cc(Cl)ccc54)C3)C2)cn1` [1-24]: 500 to 1000 nM; `O=C(N1CC2(C1)CN(c1ccnnc1)C2)N1CCOc2cc(Cl)ccc21` [1-25]: at least 1000 nM.

As to `Cc1ccc(N2CC3(CN(C(=O)N4CCOc5cc(Cl)ccc54)C3)C2)nn1` [1-26], the IC50 was in the range of 100 to 500 nM. As for `COc1ccc(N2CC3(CN(C(=O)N4CCOc5cc(Cl)ccc54)C3)C2)nn1` [1-27], the figure is 100 to 500 nM; as for `CN1Cc2cnc(N3CC4(CN(C(=O)N5CCOc6cc(Cl)ccc65)C4)C3)nc2C1` [1-28], at least 1000 nM. Next, `Cc1cc(N2CC3(CN(C(=O)N4CCOc5cc(Cl)ccc54)C3)C2)ncc1C#N` [1-29]: below 100 nM. In the case of `O=C(N1CC2(C1)CN(c1ccc(C(F)(F)F)cn1)C2)N1CCOc2cc(Cl)ccc21` [1-31], the IC50 was 100 to 500 nM. As to `O=C(N1CC2(C1)CN(c1cccc(CO)n1)C2)N1CCOc2cc(Cl)ccc21` [1-32], the IC50 lay in the range of 100 to 500 nM.

Consider `O=C(N1CC2(C1)CN(c1nccnc1F)C2)N1CCOc2cc(Cl)ccc21` [1-33], for which the IC50 is below 100 nM. In the case of `O=C(N1CC2(C1)CN(c1ccncc1)C2)N1CCOc2cc(Cl)ccc21` [1-34], the IC50 is at least 1000 nM. In the case of `O=C(N1CC2(C1)CN(c1ccnc(OC(F)F)c1)C2)N1CCOc2cc(Cl)ccc21` [1-35], the IC50 was at least 1000 nM.

As for `Cc1cc(N2CC3(CN(C(=O)N4CCOc5cc(Cl)ccc54)C3)C2)ccn1` [1-36], the IC50 is at least 1000 nM. Next, `Cc1cnc(N2CC3(CN(C(=O)N4CCOc5cc(Cl)ccc54)C3)C2)nc1` [1-37]: 100 to 500 nM; `Cc1cc(C)nc(N2CC3(CN(C(=O)N4CCOc5cc(Cl)ccc54)C3)C2)n1` [1-38]: below 100 nM. Next, `O=C(N1CC2(C1)CN(c1ccc(F)cc1)C2)N1CCOc2cc(Cl)ccc21` [1-40]: 100 to 500 nM; `Cn1ccc2ncc(N3CC4(CN(C(=O)N5CCOc6cc(Cl)ccc65)C4)C3)cc21` [1-41]: 100 to 500 nM; `Cn1nccc1N1CC2(CN(C(=O)N3CCOc4cc(Cl)ccc43)C2)C1` [1-42]: 100 to 500 nM. On to `O=C(N1CC2(C1)CN(c1nccn3cncc13)C2)N1CCOc2cc(Cl)ccc21` [1-44], for which the IC50 is below 100 nM. Next, `Cc1ccc(N2CC3(CN(C(=O)N4CCOc5cc(Cl)ccc54)C3)C2)nc1F` [1-46]: below 100 nM; `COc1ccnc(N2CC3(CN(C(=O)N4CCOc5cc(Cl)ccc54)C3)C2)n1` [1-47]: below 100 nM. As for `COc1cnc(N2CC3(CN(C(=O)N4CCOc5cc(Cl)ccc54)C3)C2)nc1` [1-48], the figure is 100 to 500 nM; as for `O=C(N1CC2(C1)CN(c1ncc(F)cc1F)C2)N1CCOc2cc(Cl)ccc21` [1-50], below 100 nM. With `Cc1cc(F)cnc1N1CC2(CN(C(=O)N3CCOc4cc(Cl)ccc43)C2)C1` [1-52], the IC50 was below 100 nM. Consider `Cn1ccnc1N1CC2(CN(C(=O)N3CCOc4cc(Cl)ccc43)C2)C1` [1-54], for which the half-maximal inhibitory concentration (IC50) fell in the range of 100 to 500 nM. As for `CCC1COc2cc(Cl)ccc2N1C(=O)N1CC2(C1)CN(c1ccc(F)cn1)C2` (stereo not drawn) [1-55], the figure is below 100 nM; as for `CCC1COc2cc(F)ccc2N1C(=O)N1CC2(C1)CN(c1ccc(F)cn1)C2` (stereo not drawn) [1-56], below 100 nM; as for `CC1COc2cc(Cl)ccc2N1C(=O)N1CC2(C1)CN(c1ncccc1F)C2` (stereo not drawn) [1-57], below 100 nM. Turning to `CC1COc2cc(Cl)ccc2N1C(=O)N1CC2(C1)CN(c1cnccn1)C2` (stereo not drawn) [1-58], the 50% inhibitory concentration (IC50) was below 100 nM.

Take `COc1ccc2c(c1)OCC(C)N2C(=O)N1CC2(C1)CN(c1ccc(F)cn1)C2` (stereo not drawn) [1-59]: the IC50 is below 100 nM. On to `CC(C)(C)OC(=O)N1CC2(C1)CN(C(=O)N1CCOc3cc(Cl)ccc31)C2` [1-61], for which the IC50 was 500 to 1000 nM. Turning to `CC1COc2cc(F)ccc2N1C(=O)N1CC2(C1)CN(c1cccnn1)C2` (stereo not drawn) [1-62], the IC50 was below 100 nM. Next, `O=C(N1CC2(C1)CN(c1ccc(F)cn1)C2)N1CCOc2ccccc21` [1-63]: 100 to 500 nM; `CC1COc2cc(F)ccc2N1C(=O)N1CC2(C1)CN(c1cnccn1)C2` (stereo not drawn) [1-65]: below 100 nM. As for `CC1COc2cc(F)ccc2N1C(=O)N1CC2(C1)CN(c1ccccn1)C2` (stereo not drawn) [1-66], the figure is below 100 nM; as for `CC1COc2cc(Cl)ccc2N1C(=O)N1CC2(C1)CN(c1ccc(F)cn1)C2` (stereo not drawn) [1-73], below 100 nM.

For the compound `O=C(N1CC2(C1)CN(c1ccncn1)C2)N1CCOc2cc(Cl)ccc21` [1-74], the IC50 fell in the range of 100 to 500 nM. As for `O=C(N1CC2(C1)CN(c1ccc(F)cn1)C2)N1CCCS(=O)(=O)c2cc(Cl)ccc21` [1-75], the figure is at least 1000 nM.

As to `O=C(N1CC2(C1)CN(c1cc(C(F)F)ccn1)C2)N1CCOc2cc(Cl)ccc21` [1-80], the IC50 is below 100 nM. Next, `O=C(N1CC2(C1)CN(c1n[nH]c3ccccc13)C2)N1CCOc2cc(Cl)ccc21` [1-82]: below 100 nM; `O=C(N1CC2(CN(Cc3ccncc3)C2)C1)N1CCOc2cc(Cl)ccc21` [2-1, (7-chloro-2,3-dihydro-4H-benzo[b][1,4]oxazin-4-yl)(6-(pyridin-4-ylmethyl)-2,6-diazaspiro[3.3]heptan-2-yl)methanone]: at least 1000 nM. As for `O=C(N1CC2(CN(Cc3ccccn3)C2)C1)N1CCOc2cc(Cl)ccc21` [2-2], the figure is at least 1000 nM; as for `O=C(N1CC2(CN(Cc3cccnc3)C2)C1)N1CCOc2cc(Cl)ccc21` [2-3], at least 1000 nM; as for `CC(c1cccnc1)N1CC2(CN(C(=O)N3CCOc4cc(Cl)ccc43)C2)C1` (stereo not drawn) [2-4], at least 1000 nM. As for `O=C(N1CC2(CN(Cc3cnccn3)C2)C1)N1CCOc2cc(Cl)ccc21` [2-5], the figure is at least 1000 nM; as for `O=C(N1CC2(CN(Cc3ccc(F)cn3)C2)C1)N1CCOc2cc(Cl)ccc21` [2-6], at least 1000 nM; as for `Cc1cnnc(N2CC3(CN(C(=O)N4CCOc5cc(Cl)ccc54)C3)C2)c1` [3-1, (7-chloro-2,3-dihydro-4H-benzo[b][1,4]oxazin-4-yl)(6-(5-methylpyridazin-3-yl)-2,6-diazaspiro[3.3]heptan-2-yl)methanone], below 100 nM. Turning to `O=C(N1CC2(C1)CN(c1ccn3ccnc3c1)C2)N1CCOc2cc(Cl)ccc21` [5-1, (7-chloro-2,3-dihydro-4H-benzo[b][1,4]oxazin-4-yl)(6-(imidazo[1,2-a]pyridin-7-yl)-2,6-diazaspiro[3.3]heptan-2-yl)methanone formate], the IC50 is 100 to 500 nM. Next, `Cc1nc(N2CC3(CN(C(=O)N4CCOc5cc(Cl)ccc54)C3)C2)no1` [7-1, (7-chloro-2,3-dihydro-4H-benzo[b][1,4]oxazin-4-yl)(6-(5-methyl-1,2,4-oxadiazol-3-yl)-2,6-diazaspiro[3.3]heptan-2-yl)methanone]: 100 to 500 nM. Next, `COc1ccc(N2CC3(CN(C(=O)N4CCOc5cc(Cl)ccc54)C3)C2)cn1` [8-1, (7-chloro-2,3-dihydro-4H-benzo[b][1,4]oxazin-4-yl)(6-(6-methoxypyridin-3-yl)-2,6-diazaspiro[3.3]heptan-2-yl)methanone]: 100 to 500 nM. For `O=C(N1CC2(C1)CN(c1ccc(F)cn1)C2)N1CCOc2ncccc21` [8-5], the half-maximal inhibitory concentration (IC50) was at least 1000 nM. Regarding `O=C(N1CC2(C1)CN(c1ccc(F)cn1)C2)N1CCOc2ccncc21` [8-6], the IC50 was at least 1000 nM. Next, `CN1CCN(C(=O)N2CC3(C2)CN(c2ccc(F)cn2)C3)c2ccc(F)cc21` [8-8]: below 100 nM. Next, `CN1CCCN(C(=O)N2CC3(C2)CN(c2ccc(F)cn2)C3)c2ccc(F)cc21` [8-10]: below 100 nM; `O=C(N1CC2(C1)CN(c1ccc(F)cn1)C2)N1CCSc2cc(Cl)ccc21` [8-15]: below 100 nM.

In the case of `O=C(N1CC2(C1)CN(c1ccc(F)cn1)C2)N1CCS(=O)(=O)c2cc(Cl)ccc21` [8-17], the IC50 was in the range of 100 to 500 nM. For the compound `CC1CN(C(=O)N2CC3(C2)CN(c2ccc(F)cn2)C3)c2ccc(F)cc2O1` (stereo not drawn) [9-4], the IC50 is below 100 nM.
